Patent publication EP1166781A1, “PROTEASOME INHIBITORS” (KYOWA HAKKO KOGYO CO., LTD., priority 1999, dated 2000)
Where two headings read alike, the source gives them in different places.

How the values were obtained:
proteasome = target: T1, proteasome (Homo sapiens, UniProt P28074); assay: Proteasome inhibitory activity (Suc-Leu-Leu-Val-Tyr-AMC cleavage, crude enzyme solution from HeLa S3 cell extract); type: biochemical
T1 construct: The obtained high molecular fraction (molecular weight >500K) was used as an enzyme solution for the detection of proteasome activity; endogenous in cells; host or cells: HeLa S3 cells: homogenate, 100,000G supernatant, >500K fraction from Centricon-500
Description: 1 x 10^9 of HeLa S3 cells were dispersed in 5 ml of the buffer A [20 mmol/L of Tris (pH 7.5), 2 mmol/L of ATP, 5 mmol/L of MgCl2, 1 mmol/L of dithiothreitol (DTT)], and then homogenized at 4°C. The supernatant centrifuged at 100,000G was concentrated by a Centricon-500 (supplied by Amicon) and diluted with 2.5 ml of the buffer B [25 mmol/L of Tris/HCl (pH 7.5), 2 mmol/L of ATP, 1 mmol/L of DTT, 20% of glycerol]. The obtained high molecular fraction (molecular weight >500K) was used as an enzyme solution for the detection of proteasome activity. Suc-Leu-Leu-Val-Tyr-AMC [Suc: Succinyl; AMC: Aminomethylcoumarin](supplied by Peptide Institute, Inc.) was used as a substrate for measuring inhibitory activity for proteasome (stored as a 2 mmol/L DMSO solution). The reaction was carried out by the following method using 96-well microtiter plates. To 96 µl of a reaction buffer [20 mmol/L of Tris/HCl (pH 8), 0.5 mmol/L of EDTA, 0.04% of sodium dodecylsulfate (SDS)] were added 1 µl of a drug solution (DMSO) and 2 µl of an enzyme solution followed by adding 1 µl of a substrate solution thereto, and then the mixture was incubated at 37°C for one hour. […]

[1] = system: human colon cancer cell line, WiDr transplanted in nude mice; assay: Antitumor activity for WiDr transplanted in nude mice; type: in vivo, BALB/c-nu/nu mouse; conditions: intraperitoneally for 5 consecutive days, 7 days, WiDr solid tumor in mice
Description: Compound 4 was dissolved in ethanol and then prepared at the fixed concentrations by adding cremophor EL (supplied by SIGMA) and saline. At this time, final concentrations of ethanol, cremophor EL, and saline are 5%, 7.5% and 87.5%, respectively. 2 mm x 2 mm of the tumor piece of human colon cancer cell line, WiDr was subcutaneously transplanted in the ventral site of a BALB/c-nu/nu mouse. At the time when a tumor volume [a major axis (a), a minor axis (b): ab^2/2] attained to 25-60 mm^3, the test compound prepared was intraperitoneally administered for 5 consecutive days to five mice as one proup.
For evaluating antitumor activity of the compound, the tumor volume was measured everyday, and the ratio of the volume (V) on the day of each measurement to the volume (V0) on the day when the administration of the compound was started was obtained to calculate T/C(%).

[2] = system: Human colon cancer, WiDr cells; assay: Antiproliferative activity in WiDr cells (MTT, 72 hours); type: cell-based
Description: Human colon cancer, WiDr cells suspended in MEM media containing 10% of fetal calf serum were seeded in 96-well microtiter plates at 2 x 10^3cells/well, and precultured in an incubator with 5% of CO2 at 37°C for 24 hours. Then, each compound diluted appropriately with the media was added into the well at 50 µl/well. At this time, a final concentration of each compound is up to 100 µmol/l or 1 µmol/l. The cells were cultured in the incubator with 5% of CO2 at 37°C for additional 72 hours. At 5 hours before the culturing was terminated, MTT [3-(4,5-dimethylthiazol-2-yl)-2,5-[…] bromide] dissolved in the medium at a final concentration of 1 mg/mL was added into the well at 50 µl/well. After the culturing, dimethyl sulfoxide was added to the well at 150 µl/well, and the plate was vigorously stirred using a plate mixer to dissolve crystals of MTT-formazan completely. […]

[3] = crude proteasome fraction (>500K) from HeLa S3 cells, substrate Suc-Leu-Leu-Val-Tyr-AMC, 37°C for one hour, read-out: IC50

Structure (SMILES) | IC50 (proteasome; [3]) | T/C ([1]; Dose 5.0 mg/kg/day) | T/C ([1]; Dose 10.0 mg/kg/day) | IC50 [2] | IC50 (proteasome)
CCC(C)C1C(=O)OC1C(=O)NC1CC1CC(NC(=O)C(C)N)C(=O)OCc1ccccc1 (centres unmarked) [Compound 4] | 0.03 µM | 56% | 49% | 0.05 µM | 
CCC(C)C1C(=O)OC1C(=O)NC1CC1CC(NC(=O)C(C)NS(=O)(=O)c1ccccc1)C(=O)OCc1ccccc1 (centres unmarked) [Compound 39] | 0.008 µM |  |  | 0.486 µM | 
CCC(C)C1C(=O)OC1C(=O)NC1CC1CC(NC(=O)C(C)NS(C)(=O)=O)C(=O)OCc1ccccc1 (centres unmarked) [Compound 40] | 0.024 µM |  |  | 0.45 µM | 
CCC(C)C1C(=O)OC1C(=O)NC1CC1CC(NC(=O)C(C)NP(=O)(c1ccccc1)c1ccccc1)C(=O)OCc1ccccc1 (centres unmarked) [Compound 41] | 0.012 µM |  |  | 2.4 µM | 
CCC(C)C1C(=O)OC1C(=O)NC1CC1CC(NC(=O)C(C)N(Cc1ccccc1)Cc1ccccc1)C(=O)OCc1ccccc1 (centres unmarked) [Compound 43] | 0.014 µM |  |  | 3.9 µM | 
CCC(C)C1C(=O)OC1C(=O)NCCCC(NC(=O)C(C)NC(=O)OC(C)(C)C)C(=O)OCc1ccccc1 (centres unmarked) [Compound 45] |  |  |  | 0.3 µM | 0.006 µM
CCC(C)C1C(=O)OC1C(=O)NCCCC(NC(=O)C(C)N)C(=O)OCc1ccccc1 (centres unmarked) [Compound 46] | 0.006 µM |  |  | 0.15 µM | 
CC(C)C[C@@H]1C(=O)O[C@H]1C(=O)NCCCC[C@H](NC(=O)[C@H](C)N)C(=O)OCc1ccccc1 [Compound 50] | 0.03 µM |  |  | 1.8 µM | 
CC(C)CC1C(=O)OC1C(=O)NCCCCC(COC(=O)c1ccccc1)NC(=O)C(C)NC(=O)OC(C)(C)C (centres unmarked) [Compound 56] | 0.022 µM |  |  | 1.9 µM | 
CC(C)C[C@@H]1C(=O)O[C@H]1C(=O)NC1CC1CC(NC(=O)OC(C)(C)C)C(=O)NCc1cccc2ccccc12 (some centres unmarked) [Compound 90] | 0.022 µM |  |  | 40 µM | 
CC(C)C[C@@H]1C(=O)O[C@H]1C(=O)NC1CC1CC(NC(=O)[C@H](C)NC(=O)OC(C)(C)C)C(=O)NCc1cccc2ccccc12 (some centres unmarked) [Compound 91] | 0.024 µM |  |  | 22 µM | 
CCC(C)C1C(=O)OC1C(=O)NC1CC1CC(NC(=O)C(C)N)C(=O)O (centres unmarked) [UCK14A1, reference compound] | 0.4 µM |  |  | > 30 µM | 
